{"source": "patent US10471111B2", "about": "“Lactobacillus and composition for preventing, improving, or treating degenerative brain diseases or cognitive function disorders” (University-Industry Cooperation Group of Kyung Hee …, priority 2015, dated 2019)", "assay_type_in_all_cases": "in vivo, ICR male mice", "key": {"[1]": {"test_system": "mice induced to have memory impairment by scopolamine", "assay": "Y-maze test, memory impairment by scopolamine", "description": "Apparatus used in the Y-maze test consists of three arms with each being 42 cm in length, 3 cm in width and 12 cm in height. The three arms, made from black polyvinyl resin, were placed at an angle of 120 degrees.\n(§1) The selected 13 types of lactic acid bacteria were each suspended in physiological saline at the concentration of 1×10^10 CFU/ ? , and then the suspension was administered to mice of the test animal (5-week-old ICR male mice from Raonbio), at the dosage of 0.1 ? (equivalent to 1×10^9 CFU of lactic acid bacteria) on a daily basis for three days. […]\nAn hour after the final administration of lactic acid bacteria or positive control drug, 1 mg/kg (body weight) of scopolamine (cholinergic blocking drug inducing cognitive ability disorder or memory impairment), dissolved in distilled water, was administered in the abdomen while the normal group was administered with physiological saline in the abdomen. half an hour after the administration of scopolamine, the mouse was carefully placed in one of the three arms, A, B, and C, in the Y-maze and allowed to freely move for eight minutes, and then the arm in which the mouse moved was recorded. In the experiment, the arm was recorded as a case in which the test animal moved only when the entire body including the tail was inside the arm, or when the mouse moved back in. […]"}, "[2]": {"test_system": "mice induced to have memory impairment by Proteus mirabilis K21", "assay": "Y-maze test, memory impairment by Proteus mirabilis K21", "details": "Proteus mirabilis K21 1×10^9 CFU for five days, then lactic acid bacteria 1×10^9 CFU or donepezil 5 mg/kg daily for five days", "description": "Proteus mirabilis K21 separated from the animal with damaged memory was administered to the mice to induce memory impairment (similar symptoms to […]), and Y-maze test was conducted to measure the improvement effect of lactic acid bacteria for cognitive ability.\nIn more detail, Proteus mirabilis K21 was administered to a mouse (5-week-old ICR male mice from Raonbio) that was fed for a week in the animal laboratory at the dosage of 1×10^9 CFU on a daily basis for five days to induce memory impairment. In the meantime, the normal group was administered with physiological saline instead of Proteus mirabilis K21. […]\nAn hour after the final administration of drug, the mouse was carefully placed in one of the three arms, A, B, and C, in the Y-maze and allowed to freely move for eight minutes, and then the arm in which the mouse moved was recorded. In the experiment, the arm was recorded as an arm in which the test animal moved only when the entire body including the tail was inside the arm, or when the mouse moved back in. […] The experimental result was calculated by the formula below (Sarter, M. et al., Psychopharmacology., 94, pp 491-495, 1998), as shown in Table 12 below. […]"}, "[3]": {"test_system": "mice induced to have memory impairment by scopolamine", "assay": "Passive Avoidance test, memory impairment by scopolamine", "details": "scopolamine 1 mg/kg; lactic acid bacteria 1×10^9 CFU or donepezil 5 mg/kg daily for three days; measured up to 300 seconds", "text": "In the Passive Avoidance test apparatus, which is divided into the first and second space, there is a guillotine-like door that connects the two spaces. By using lightings, the first space was kept bright while the second space was kept dark. On the floor of the second space that was kept dark was placed an electric grid that flowed 0.5 mA of electric shock for three seconds in the case of the animal moving to the dark space.\nas §1\nOn the third day after administering the drug, an hour after administering lactic acid bacteria or positive control drug, 1 mg/kg (body weight) of scopolamine (cholinergic blocking drug inducing cognitive ability disorder or memory damage), dissolved in distilled water, was administered in the abdomen while the normal group was administered with physiological saline in the abdomen. […] With 10 seconds of observation, the guillotine-like door is opened, the time that the mice in each experimental group took to have all of their four feet inside the second space was measured up to 300 seconds, whose result is shown in Table 8. […]"}}, "data": [{"smiles": "COc1cc2c(cc1OC)C(=O)C(CC1CCN(Cc3ccccc3)CC1)C2", "note": "(stereo not shown) [donepezil]", "values": [{"measurement": "Alternation behavior", "setting": "[1]; Y-maze test, Table 11, scopolamine, red bean suspension or ferment 0.2 g per mouse, CJLJ103 2 × 10^8 CFU per mouse daily", "result": 63.2, "unit": "%"}, {"measurement": "Alternation behavior", "setting": "[1]; scopolamine 1 mg/kg, lactic acid bacteria 1×10^9 CFU or donepezil 5 mg/kg daily for three days", "result": 65.8, "unit": "%"}, {"measurement": "Alternation behavior", "setting": "[2]", "result": 58.6, "unit": "%"}, {"measurement": "Latency time", "setting": "[3]", "result": 66.4, "unit": "s"}]}]}
